US7063946B2, “Methods, reagents, kits and apparatus for protein function analysis” (Meso Scale Technologies, LLC., priority 2001, dated 2006)

Legend:
Type in all cases: biochemical
BTK = target: T1, BTK (Homo sapiens, UniProt Q06187); experiment: Kinase inhibitor profiling, autophosphorylation
T1 construct: specificity data for proteins generated from a library of eighteen full-length clones; host or cells: rabbit reticulocyte lysate, TnT coupled in vitro transcription/translation (cell-free)

EphB4 = target: T2, EphB4 (Mus musculus, UniProt P54761); experiment: Kinase inhibitor profiling, pEY phosphorylation
T2 construct: specificity data for proteins generated from a library of eighteen full-length clones; host or cells: rabbit reticulocyte lysate, TnT coupled in vitro transcription/translation (cell-free)
T2 sequence (P54761 16-987): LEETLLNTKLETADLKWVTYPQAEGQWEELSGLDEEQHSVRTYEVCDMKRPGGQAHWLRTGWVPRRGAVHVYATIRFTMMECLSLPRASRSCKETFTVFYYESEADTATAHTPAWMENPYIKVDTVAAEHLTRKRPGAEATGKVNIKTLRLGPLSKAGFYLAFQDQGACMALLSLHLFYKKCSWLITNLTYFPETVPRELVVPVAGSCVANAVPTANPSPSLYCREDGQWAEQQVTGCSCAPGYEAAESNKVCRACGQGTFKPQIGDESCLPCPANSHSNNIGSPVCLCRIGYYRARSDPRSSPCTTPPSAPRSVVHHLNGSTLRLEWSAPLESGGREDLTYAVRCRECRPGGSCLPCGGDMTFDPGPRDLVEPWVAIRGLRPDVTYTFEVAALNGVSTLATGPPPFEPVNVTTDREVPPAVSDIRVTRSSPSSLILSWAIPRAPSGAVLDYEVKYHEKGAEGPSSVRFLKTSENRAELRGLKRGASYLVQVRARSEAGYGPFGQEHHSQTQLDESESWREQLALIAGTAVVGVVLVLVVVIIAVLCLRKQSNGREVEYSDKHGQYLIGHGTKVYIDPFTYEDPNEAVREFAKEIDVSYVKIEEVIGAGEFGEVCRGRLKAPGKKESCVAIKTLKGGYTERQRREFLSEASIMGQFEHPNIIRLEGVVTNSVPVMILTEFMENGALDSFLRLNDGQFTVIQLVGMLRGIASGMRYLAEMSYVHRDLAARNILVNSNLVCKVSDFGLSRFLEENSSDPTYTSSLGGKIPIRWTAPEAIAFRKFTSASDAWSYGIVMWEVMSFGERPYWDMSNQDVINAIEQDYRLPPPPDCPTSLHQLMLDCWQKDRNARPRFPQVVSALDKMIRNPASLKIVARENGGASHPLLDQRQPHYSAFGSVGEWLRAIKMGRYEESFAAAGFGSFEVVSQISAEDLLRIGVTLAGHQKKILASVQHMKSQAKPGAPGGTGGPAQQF

Kit = target: T3, Kit (Mus musculus, UniProt P05532); experiment: Kinase inhibitor profiling, pEY phosphorylation
T3 construct: specificity data for proteins generated from a library of eighteen full-length clones; biotin on random lysines (biotin-Lys-tRNA); host or cells: rabbit reticulocyte lysate, coupled transcription/translation (TnT, Promega)
T3 sequence (P05532 25-979): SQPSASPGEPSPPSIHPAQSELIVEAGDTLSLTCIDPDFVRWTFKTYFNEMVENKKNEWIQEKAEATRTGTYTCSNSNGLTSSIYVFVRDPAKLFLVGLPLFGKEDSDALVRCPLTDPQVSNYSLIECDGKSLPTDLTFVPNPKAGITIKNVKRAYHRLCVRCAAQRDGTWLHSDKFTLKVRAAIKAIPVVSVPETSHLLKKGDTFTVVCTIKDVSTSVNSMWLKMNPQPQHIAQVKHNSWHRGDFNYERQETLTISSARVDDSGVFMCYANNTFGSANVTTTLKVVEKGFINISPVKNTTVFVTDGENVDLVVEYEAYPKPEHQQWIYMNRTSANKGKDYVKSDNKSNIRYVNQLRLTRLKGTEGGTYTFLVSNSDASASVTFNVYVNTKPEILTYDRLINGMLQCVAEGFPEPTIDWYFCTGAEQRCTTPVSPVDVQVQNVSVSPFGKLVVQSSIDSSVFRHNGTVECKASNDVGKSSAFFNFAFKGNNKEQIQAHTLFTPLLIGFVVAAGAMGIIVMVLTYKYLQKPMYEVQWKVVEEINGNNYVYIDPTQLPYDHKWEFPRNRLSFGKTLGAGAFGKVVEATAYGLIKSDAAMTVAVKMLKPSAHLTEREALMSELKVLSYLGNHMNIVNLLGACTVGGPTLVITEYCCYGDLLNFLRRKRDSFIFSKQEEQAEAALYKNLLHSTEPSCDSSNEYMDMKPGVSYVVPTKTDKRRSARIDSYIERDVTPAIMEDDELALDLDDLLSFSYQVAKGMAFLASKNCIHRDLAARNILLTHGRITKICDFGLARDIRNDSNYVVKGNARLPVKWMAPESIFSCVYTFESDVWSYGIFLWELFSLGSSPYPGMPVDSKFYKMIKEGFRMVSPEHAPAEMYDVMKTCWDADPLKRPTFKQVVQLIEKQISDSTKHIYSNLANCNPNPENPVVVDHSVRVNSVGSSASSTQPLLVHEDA

FGFR1 = target: T4, FGFR1 (Homo sapiens, UniProt P11362); experiment: Kinase inhibitor profiling, pEY phosphorylation
T4 construct: specificity data for proteins generated from a library of eighteen full-length clones; host or cells: rabbit reticulocyte lysate, TnT coupled transcription/translation
T4 sequence (P11362 22-822): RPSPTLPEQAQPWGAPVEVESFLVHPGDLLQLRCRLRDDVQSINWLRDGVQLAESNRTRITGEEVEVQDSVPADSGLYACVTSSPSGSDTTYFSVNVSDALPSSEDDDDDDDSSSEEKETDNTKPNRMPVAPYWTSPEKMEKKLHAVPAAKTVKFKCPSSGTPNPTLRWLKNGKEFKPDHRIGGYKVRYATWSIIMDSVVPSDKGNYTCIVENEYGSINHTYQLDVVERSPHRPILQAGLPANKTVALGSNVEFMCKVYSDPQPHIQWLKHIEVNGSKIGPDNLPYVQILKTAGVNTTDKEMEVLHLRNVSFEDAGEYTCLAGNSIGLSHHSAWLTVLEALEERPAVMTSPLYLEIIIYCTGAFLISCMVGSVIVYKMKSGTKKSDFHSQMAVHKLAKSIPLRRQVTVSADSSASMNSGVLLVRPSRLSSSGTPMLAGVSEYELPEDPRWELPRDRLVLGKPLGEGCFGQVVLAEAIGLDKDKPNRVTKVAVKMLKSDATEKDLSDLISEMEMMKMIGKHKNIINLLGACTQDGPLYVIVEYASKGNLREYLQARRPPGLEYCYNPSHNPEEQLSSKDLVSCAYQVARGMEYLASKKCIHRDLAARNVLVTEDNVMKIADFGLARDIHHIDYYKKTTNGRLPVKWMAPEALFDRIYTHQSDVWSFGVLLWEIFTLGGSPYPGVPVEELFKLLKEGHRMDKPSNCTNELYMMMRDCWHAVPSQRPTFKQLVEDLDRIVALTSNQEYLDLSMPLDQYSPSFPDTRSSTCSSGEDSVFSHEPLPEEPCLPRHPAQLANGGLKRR

Fgfr4 = target: T5, Fgfr4 (Mus musculus, UniProt Q03142); experiment: Kinase inhibitor profiling, pEY phosphorylation
T5 construct: specificity data for proteins generated from a library of eighteen full-length clones; biotin on random lysines (biotin-Lys-tRNA); host or cells: rabbit reticulocyte lysate, coupled transcription/translation (TnT, Promega)
T5 sequence (Q03142 17-799): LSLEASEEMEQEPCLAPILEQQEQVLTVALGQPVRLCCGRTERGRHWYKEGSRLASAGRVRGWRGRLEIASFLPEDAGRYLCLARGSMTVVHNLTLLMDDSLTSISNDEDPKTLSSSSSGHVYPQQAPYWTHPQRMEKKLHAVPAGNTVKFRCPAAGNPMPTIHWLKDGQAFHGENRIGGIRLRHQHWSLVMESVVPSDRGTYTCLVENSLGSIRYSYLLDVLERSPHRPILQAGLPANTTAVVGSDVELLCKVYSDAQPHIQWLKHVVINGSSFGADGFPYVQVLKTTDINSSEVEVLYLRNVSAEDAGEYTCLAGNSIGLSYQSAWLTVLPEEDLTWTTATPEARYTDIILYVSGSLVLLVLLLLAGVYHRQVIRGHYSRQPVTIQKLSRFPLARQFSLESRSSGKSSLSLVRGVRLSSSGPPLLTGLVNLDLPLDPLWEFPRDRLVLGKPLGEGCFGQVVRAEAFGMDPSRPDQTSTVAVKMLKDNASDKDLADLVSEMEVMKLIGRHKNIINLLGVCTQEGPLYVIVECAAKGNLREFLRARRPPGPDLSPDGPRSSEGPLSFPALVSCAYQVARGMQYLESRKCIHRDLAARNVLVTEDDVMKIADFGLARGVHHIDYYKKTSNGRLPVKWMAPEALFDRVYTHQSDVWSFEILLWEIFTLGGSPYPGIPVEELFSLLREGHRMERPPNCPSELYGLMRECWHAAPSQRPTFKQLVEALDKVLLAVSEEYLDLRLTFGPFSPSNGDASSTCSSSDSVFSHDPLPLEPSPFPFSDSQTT

T1 sequence (Q06187 whole entry): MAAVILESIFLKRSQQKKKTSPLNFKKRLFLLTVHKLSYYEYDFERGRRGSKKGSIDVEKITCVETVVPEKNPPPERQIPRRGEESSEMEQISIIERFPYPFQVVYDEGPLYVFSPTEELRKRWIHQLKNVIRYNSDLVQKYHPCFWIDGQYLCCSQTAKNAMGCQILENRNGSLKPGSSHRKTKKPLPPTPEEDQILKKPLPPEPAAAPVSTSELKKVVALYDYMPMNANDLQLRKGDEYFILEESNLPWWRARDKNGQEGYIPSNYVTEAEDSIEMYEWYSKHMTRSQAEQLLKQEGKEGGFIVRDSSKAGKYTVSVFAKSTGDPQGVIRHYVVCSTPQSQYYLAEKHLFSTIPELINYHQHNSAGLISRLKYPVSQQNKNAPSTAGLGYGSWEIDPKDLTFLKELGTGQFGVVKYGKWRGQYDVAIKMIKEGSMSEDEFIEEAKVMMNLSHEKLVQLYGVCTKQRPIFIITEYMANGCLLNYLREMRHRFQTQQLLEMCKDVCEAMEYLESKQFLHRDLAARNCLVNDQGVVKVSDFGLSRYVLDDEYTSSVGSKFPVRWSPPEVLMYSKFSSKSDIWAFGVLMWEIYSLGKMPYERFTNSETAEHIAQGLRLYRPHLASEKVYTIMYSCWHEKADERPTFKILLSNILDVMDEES

| Compound | Inhibition specificity towards Autophosphorylation at 10X IC50, BTK (BTK) | Inhibition specificity towards pEY phosphorylation at 10X IC50, EphB4 (EphB4) | Inhibition specificity towards pEY phosphorylation at 10X IC50, Kit (Kit) | Inhibition specificity towards pEY phosphorylation at 10X IC50, FGFR1 (FGFR1) | Inhibition specificity towards pEY phosphorylation at 10X IC50, Fgfr4 (Fgfr4) |
| --- | --- | --- | --- | --- | --- |
| COC(=O)c1ccc(NCc2cc(O)ccc2O)cc1 [AG-957] | L (low inhibition (“L”=between 50–75% of the activity remaining)) | L (low inhibition (“L”=between 50–75% of the activity remaining)) | L (low inhibition (“L”=between 50–75% of the activity remaining)) | L (low inhibition (“L”=between 50–75% of the activity remaining)) |  |
| CC(C)(C)c1cc(C=C(C#N)C#N)cc(Br)c1O [AG-1024] | L (low inhibition (“L”=between 50–75% of the activity remaining)) | L (low inhibition (“L”=between 50–75% of the activity remaining)) | L (low inhibition (“L”=between 50–75% of the activity remaining)) | L (low inhibition (“L”=between 50–75% of the activity remaining)) | M (medium inhibition (“M”=between 25 to 50% of the activity remaining)) |
| Cc1cc2ncc(-c3ccc(O)c(O)c3)nc2cc1C [AG-1433] | H (high inhibition (“H”=less than 25% of the activity remaining)) | H (high inhibition (“H”=less than 25% of the activity remaining)) | H (high inhibition (“H”=less than 25% of the activity remaining)) | H (high inhibition (“H”=less than 25% of the activity remaining)) | H (high inhibition (“H”=less than 25% of the activity remaining)) |
| COc1c(C=O)c(O)cc2c1C(=O)c1ccccc1C2=O [Damnacanthal] | H (high inhibition (“H”=less than 25% of the activity remaining)) | H (high inhibition (“H”=less than 25% of the activity remaining)) | H (high inhibition (“H”=less than 25% of the activity remaining)) | H (high inhibition (“H”=less than 25% of the activity remaining)) | H (high inhibition (“H”=less than 25% of the activity remaining)) |
| Cc1ccc(-c2nn(C(C)(C)C)c3ncnc(N)c23)cc1 [PP1] |  | L (low inhibition (“L”=between 50–75% of the activity remaining)) | M (medium inhibition (“M”=between 25 to 50% of the activity remaining)) | L (low inhibition (“L”=between 50–75% of the activity remaining)) | M (medium inhibition (“M”=between 25 to 50% of the activity remaining)) |
| COc1cc2ncnc(Nc3ccc(Cl)cc3F)c2cc1OC [VEGFR inhibitor] | L (low inhibition (“L”=between 50–75% of the activity remaining)) | M (medium inhibition (“M”=between 25 to 50% of the activity remaining)) | L (low inhibition (“L”=between 50–75% of the activity remaining)) |  | L (low inhibition (“L”=between 50–75% of the activity remaining)) |
| COc1cc2ncnc(Nc3ccc(O)cc3)c2cc1OC [WHI-P131] |  | M (medium inhibition (“M”=between 25 to 50% of the activity remaining)) | H (high inhibition (“H”=less than 25% of the activity remaining)) | L (low inhibition (“L”=between 50–75% of the activity remaining)) | L (low inhibition (“L”=between 50–75% of the activity remaining)) |
| Erbstatin analog | L (low inhibition (“L”=between 50–75% of the activity remaining)) | L (low inhibition (“L”=between 50–75% of the activity remaining)) | L (low inhibition (“L”=between 50–75% of the activity remaining)) |  |  |
